Our source for the IC50 values is US9120752B2, “Pyridine compounds as sodium channel blockers” (Purdue Pharma, L.P., priority 2010, dated 2015).

This experiment concerns the target human Nav1.7 (Homo sapiens (Human), UniProt Q15858). The experiment is described as follows: FLIPR or FLIPR TETRA sodium dye assay with KCl and test article pre-incubation. The experiment is classed as cell-based. Particulars: sodium dye assay with KCl; recombinant Nav1.7/HEK293 cells; read-out: Nav1.7 IC50 (μM) ± SEM.

Sequence of human Nav1.7 (Q15858 other isoform, or with tags, fused parts or gaps): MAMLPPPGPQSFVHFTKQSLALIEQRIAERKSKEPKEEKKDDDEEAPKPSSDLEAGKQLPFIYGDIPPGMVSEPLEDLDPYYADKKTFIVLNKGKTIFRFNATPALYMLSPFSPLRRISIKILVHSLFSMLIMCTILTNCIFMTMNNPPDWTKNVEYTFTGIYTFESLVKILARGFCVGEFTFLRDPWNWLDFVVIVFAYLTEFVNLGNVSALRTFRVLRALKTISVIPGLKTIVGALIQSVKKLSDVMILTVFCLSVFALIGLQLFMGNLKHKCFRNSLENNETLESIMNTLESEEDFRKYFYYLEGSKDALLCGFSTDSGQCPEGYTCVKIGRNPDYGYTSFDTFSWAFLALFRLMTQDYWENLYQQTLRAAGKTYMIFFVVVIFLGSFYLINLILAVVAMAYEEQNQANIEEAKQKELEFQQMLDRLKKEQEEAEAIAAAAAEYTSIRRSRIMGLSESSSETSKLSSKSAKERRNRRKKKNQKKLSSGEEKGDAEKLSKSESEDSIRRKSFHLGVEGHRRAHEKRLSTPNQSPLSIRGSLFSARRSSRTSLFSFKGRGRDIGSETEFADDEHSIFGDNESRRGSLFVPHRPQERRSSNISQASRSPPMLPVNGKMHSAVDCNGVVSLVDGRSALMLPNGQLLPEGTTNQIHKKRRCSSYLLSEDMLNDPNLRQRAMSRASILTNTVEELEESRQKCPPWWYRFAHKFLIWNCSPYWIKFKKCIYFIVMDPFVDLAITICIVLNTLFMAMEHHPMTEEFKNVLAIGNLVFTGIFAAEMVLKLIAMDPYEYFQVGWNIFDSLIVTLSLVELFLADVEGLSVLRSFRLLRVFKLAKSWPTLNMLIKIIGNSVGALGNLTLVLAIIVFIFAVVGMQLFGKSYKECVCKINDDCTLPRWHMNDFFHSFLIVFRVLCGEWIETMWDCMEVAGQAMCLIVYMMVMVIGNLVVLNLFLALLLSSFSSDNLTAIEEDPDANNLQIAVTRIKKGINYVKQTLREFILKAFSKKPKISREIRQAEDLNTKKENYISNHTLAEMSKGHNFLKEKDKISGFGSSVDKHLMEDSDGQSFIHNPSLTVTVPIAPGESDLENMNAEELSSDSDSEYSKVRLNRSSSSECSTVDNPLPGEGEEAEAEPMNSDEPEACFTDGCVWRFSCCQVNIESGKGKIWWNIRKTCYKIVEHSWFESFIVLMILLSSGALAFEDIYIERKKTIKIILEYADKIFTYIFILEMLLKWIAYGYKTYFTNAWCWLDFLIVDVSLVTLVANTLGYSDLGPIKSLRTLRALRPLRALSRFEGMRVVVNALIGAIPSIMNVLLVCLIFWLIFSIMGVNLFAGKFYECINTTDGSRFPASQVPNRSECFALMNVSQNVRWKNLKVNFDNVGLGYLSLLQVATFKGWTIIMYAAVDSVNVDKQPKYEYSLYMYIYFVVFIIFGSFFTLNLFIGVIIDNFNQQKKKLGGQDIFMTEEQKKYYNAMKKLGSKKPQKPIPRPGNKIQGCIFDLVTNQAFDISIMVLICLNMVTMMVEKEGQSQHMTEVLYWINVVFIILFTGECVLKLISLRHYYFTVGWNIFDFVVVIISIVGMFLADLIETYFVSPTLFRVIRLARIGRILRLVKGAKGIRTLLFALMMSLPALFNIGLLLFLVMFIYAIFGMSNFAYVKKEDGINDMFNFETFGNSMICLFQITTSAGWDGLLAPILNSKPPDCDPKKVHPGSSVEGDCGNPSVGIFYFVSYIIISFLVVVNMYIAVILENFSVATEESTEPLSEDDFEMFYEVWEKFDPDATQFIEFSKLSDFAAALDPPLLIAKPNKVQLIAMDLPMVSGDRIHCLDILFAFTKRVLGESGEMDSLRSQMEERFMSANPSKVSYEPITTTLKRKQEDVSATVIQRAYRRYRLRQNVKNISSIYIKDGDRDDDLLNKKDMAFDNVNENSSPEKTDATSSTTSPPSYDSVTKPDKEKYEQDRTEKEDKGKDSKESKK

As a reminder, the IC50 is the concentration needed to halve the response being measured. As for `NC(=O)[C@H](Cc1ccccc1)NC(=O)c1cccc(-c2ccc(Oc3ccc(F)cc3)cc2)n1` [Compound 41, 6-[4-(4-fluoro-phenoxy)-phenyl]-pyridine-2-carboxylic acid ((S)-1-carbamoyl-2-phenyl-ethyl)-amide], the IC50 is more than 20 µM. Regarding `NC(=O)C[C@H](NC(=O)c1cc([C@@H](O)CO)cc(-c2ccc(Oc3ccc(F)cc3)cc2)n1)C(N)=O` [Compound 66, (S)-2-(4-((R)-1,2-dihydroxyethyl)-6-(4-(4-fluorophenoxy)phenyl)picolinamido) succinamide], the IC50 is more than 20 µM. Turning to `CC(C)[C@H](NC(=O)c1cccc(-c2ccc(Oc3ccc(F)cc3)cc2)n1)C(N)=O` [Compound 46, 6-[4-(4-fluoro-phenoxy)-phenyl]-pyridine-2-carboxylic acid ((S)-1-carbamoyl-2-methyl-propyl)-amide], the IC50 was 0.61 ± 0.05 µM.

`CS(=O)(=O)NCCNC(=O)c1cccc(-c2ccc(Oc3ccc(F)cc3)cc2)n1` [Compound 21, 6-(4-(4-fluorophenoxy)phenyl)-N-(2-(methylsulfonamido)ethyl)picolinamide]: the 50% inhibitory concentration (IC50) is 0.39 ± 0.08 µM. As for `CC(C)C[C@H](NC(=O)c1cc([C@@H](O)CO)cc(-c2ccc(Oc3ccc(F)cc3)cc2)n1)C(N)=O` [Compound 65, N—((S)-1-amino-4-methyl-1-oxopentan-2-yl)-4-((R)-1,2-dihydroxyethyl)-6-(4-(4-fluorophenoxy)phenyl)picolinamide], the IC50 is 1.56 ± 0.166 µM. For the compound `NC(=O)C[C@H](NC(=O)c1cc([C@H](O)CO)cc(-c2ccc(Oc3ccc(F)cc3)cc2)n1)C(N)=O` [Compound 64, (S)-2-(4-((S)-1,2-dihydroxyethyl)-6-(4-(4-fluorophenoxy)phenyl)picolinamido)succinamide], the IC50 is more than 20 µM. The same measure for `NC(=O)C[C@H](NC(=O)c1cccc(-c2ccc(Oc3ccc(F)cc3)cc2)n1)C(N)=O` [Compound 39, (S)-2-({6-[4-(4-fluoro-phenoxy)-phenyl]-pyridine-2-carbonyl}-amino)-succinamide]: 0.75 ± 0.05 µM. Turning to `N#Cc1cc(S(=O)(=O)N2CCN(C(=O)c3cccc(-c4ccc(Oc5ccc(F)cc5)cc4)n3)CC2)ccc1F` [Compound 59], the IC50 stood at 0.34 ± 0.13 µM. `N#Cc1ccc(S(=O)(=O)N2CCN(C(=O)c3cccc(-c4ccc(Oc5ccc(F)cc5)cc4)n3)CC2)cc1` [Compound 17, 4-((4-(6-(4-(4-fluorophenoxy)phenyl)picolinoyl)piperazin-1-yl)sulfonyl)benzonitrile]: the IC50 is 0.97 ± 0.13 µM. As to `CS(=O)(=O)N1CCN(C(=O)c2cccc(-c3ccc(Oc4ccc(F)cc4)cc3)n2)CC1` [Compound 13, (6-(4-(4-fluorophenoxy)phenyl)pyridin-2-yl)(4-(methylsulfonyl)piperazin-1-yl)methanone], the concentration for half-maximal inhibition (IC50) was 1.31 ± 0.18 µM.

`NCCCC[C@H](NC(=O)c1cccc(-c2ccc(Oc3ccc(F)cc3)cc2)n1)C(N)=O` [Compound 51, (S)—N-(1,6-diamino-1-oxohexan-2-yl)-6-(4-(4-fluorophenoxy)phenyl)picolinamide]: the 50% inhibitory concentration (IC50) is 2.89 ± 0.33 µM.

Take `O=C(O)c1cccc(S(=O)(=O)N2CCN(C(=O)c3cccc(-c4ccc(Oc5ccc(F)cc5)cc4)n3)CC2)c1` [Compound 18, 3-((4-(6-(4-(4-fluorophenoxy)phenyl)picolinoyl)piperazin-1-yl)sulfonyl)benzoic acid]: the IC50 came out at 3.48 ± 0.72 µM. In the case of `O=C(c1cccc(-c2ccc(Oc3ccc(F)cc3)cc2)n1)N1CCN(S(=O)(=O)c2cccnc2)CC1` [Compound 15, (6-(4-(4-fluorophenoxy)phenyl)pyridin-2-yl)(4-(pyridin-3-ylsulfonyl)piperazin-1-yl)methanone], the IC50 amounted to 0.42 ± 0.04 µM. Take `CC1(C)C2CCC1(CS(=O)(=O)N1CCN(C(=O)c3cccc(-c4ccc(Oc5ccc(F)cc5)cc4)n3)CC1)C(=O)C2` (stereo not shown) [Compound 12, 1-(((4-(6-(4-(4-fluorophenoxy)phenyl)picolinoyl)piperazin-1-yl)sulfonyl)methyl)-7,7-dimethylbicyclo[2.2.1]heptan-2-one]: the 50% inhibitory concentration (IC50) amounted to 0.14 ± 0.04 µM. With `N#Cc1cccc(S(=O)(=O)N2CCN(C(=O)c3cccc(Oc4ccc(F)cc4)n3)CC2)c1` [Compound 55, 3-((4-(6-(4-fluorophenoxy)picolinoyl)piperazin-1-yl)sulfonyl)benzonitrile], the half-maximal inhibitory concentration (IC50) stood at 5.94 ± 0.73 µM. Then `N#Cc1cccc(S(=O)(=O)NCCNC(=O)c2cccc(-c3ccc(Oc4ccc(F)cc4)cc3)n2)c1` [Compound 24, N-(2-(3-cyanophenylsulfonamido)ethyl)-6-(4-(4-fluorophenoxy)phenyl)picolinamide], with 0.03 ± 0.04 µM; and `O=C(c1cccc(-c2ccc(Oc3ccc(F)cc3)cc2)n1)N1CCN(S(=O)(=O)c2ccc(OC(F)(F)F)cc2)CC1` [Compound 7, (6-(4-(4-fluorophenoxy)phenyl)pyridin-2-yl)(4-((4-(trifluoromethoxy)phenyl)sulfonyl)piperazin-1-yl)methanone], with 0.19 ± 0.05 µM. Then `C[C@H](NC(=O)c1cccc(-c2ccc(Oc3ccc(C(F)(F)F)cn3)cc2)n1)C(N)=O` [Compound 61, (S)—N-(1-amino-1-oxopropan-2-yl)-6-(4-((5-(trifluoromethyl)pyridin-2-yl)oxy)phenyl)picolinamide], with 4.34 ± 0.73 µM; and `CC(O)[C@H](NC(=O)c1cccc(-c2ccc(Oc3ccc(F)cc3)cc2)n1)C(N)=O` (stereo partly drawn) [Compound 43, 6-[4-(4-fluoro-phenoxy)-phenyl]-pyridine-2-carboxylic acid ((S)-1-carbamoyl-2-hydroxy-propyl)-amide], with 1.56 ± 0.5 µM. Turning to `Cc1noc(C)c1S(=O)(=O)N1CCN(C(=O)c2cccc(-c3ccc(Oc4ccc(F)cc4)cc3)n2)CC1` [Compound 14, (4-((3,5-dimethylisoxazol-4-yl)sulfonyl)piperazin-1-yl)(6-(4-(4-fluorophenoxy)phenyl)pyridin-2-yl)methanone], the IC50 amounted to 0.22 ± 0.04 µM.

Turning to `CS(=O)(=O)c1cccc(S(=O)(=O)N2CCN(C(=O)c3cccc(-c4ccc(Oc5ccc(F)cc5)cc4)n3)CC2)c1` [Compound 8, (6-(4-(4-fluorophenoxy)phenyl)pyridin-2-yl)(4-((3-(methylsulfonyl)phenyl)sulfonyl)piperazin-1-yl)methanone], the IC50 turned out to be 0.78 ± 0.17 µM.

Consider `CS(=O)(=O)c1cccc(S(=O)(=O)NCCNC(=O)c2cccc(-c3ccc(Oc4ccc(F)cc4)cc3)n2)c1` [Compound 23, 6-(4-(4-fluorophenoxy)phenyl)-N-(2-(3-(methylsulfonyl)phenylsulfonamido)ethyl)picolinamide], for which the 50% inhibitory concentration (IC50) was 0.39 ± 0.03 µM. For the compound `O=C(c1cccc(-c2ccc(Oc3ccc(F)cc3)cc2)n1)N1CCN(S(=O)(=O)c2cccc(OC(F)(F)F)c2)CC1` [Compound 16], the concentration for half-maximal inhibition (IC50) is 0.32 ± 0.09 µM.

As to `NC(=O)[C@H](Cc1ccc(O)cc1)NC(=O)c1cccc(-c2ccc(Oc3ccc(F)cc3)cc2)n1` [Compound 48, 6-[4-(4-fluoro-phenoxy)-phenyl]-pyridine-2-carboxylic acid [(S)-1-carbamoyl-2-(4-hydroxy-phenyl)-ethyl]-amide], the half-maximal inhibitory concentration (IC50) amounted to 0.55 ± 0.08 µM. Then `NC(=O)[C@@H]1CCCN1C(=O)c1cccc(-c2ccc(Oc3ccc(F)cc3)cc2)n1` [Compound 42, (S)-1-{6-[4-(4-fluoro-phenoxy)-phenyl]-pyridine-2-carbonyl}-pyrrolidine-2-carboxylic acid amide], with 2.12 ± 0.35 µM; and `NC(=O)[C@@H](CO)NC(=O)c1cccc(-c2ccc(Oc3ccc(F)cc3)cc2)n1` [Compound 40, 6-[4-(4-fluoro-phenoxy)-phenyl]-pyridine-2-carboxylic acid ((R)-1-carbamoyl-2-hydroxyl-ethyl)-amide], with 1.32 ± 0.16 µM; and `CC(C)C[C@H](NC(=O)c1cc([C@H](O)CO)cc(-c2ccc(Oc3ccc(F)cc3)cc2)n1)C(N)=O` [Compound 63, N—((S)-1-amino-4-methyl-1-oxopentan-2-yl)-4-((S)-1,2-dihydroxyethyl)-6-(4-(4-fluorophenoxy)phenyl)picolinamide], with 0.814 ± 0.231 µM.

As to `NC(=O)[C@@H](Cc1c[nH]c2ccccc12)NC(=O)c1cccc(-c2ccc(Oc3ccc(F)cc3)cc2)n1` [Compound 37, 6-[4-(4-fluoro-phenoxy)-phenyl]-pyridine-2-carboxylic acid [(R)-1-carbamoyl-2-(1H-indol-3-yl)-ethyl]-amide], the half-inhibitory concentration (IC50) was found to be 4.02 ± 2.78 µM. With `O=C(O)c1ccc(S(=O)(=O)N2CCN(C(=O)c3cccc(-c4ccc(Oc5ccc(F)cc5)cc4)n3)CC2)cc1` [Compound 19, 4-((4-(6-(4-(4-fluorophenoxy)phenyl)picolinoyl)piperazin-1-yl)sulfonyl)benzoic acid], the IC50 was found to be 4.81 ± 0.18 µM. As to `N#Cc1cccc(S(=O)(=O)N2CCN(C(=O)c3cc([C@H](O)CO)cc(-c4ccc(Oc5ccc(F)cc5)cc4)n3)CC2)c1` [Compound 58, (S)-3-((4-(4-(1,2-dihydroxyethyl)-6-(4-(4-fluorophenoxy)phenyl)picolinoyl)piperazin-1-yl)sulfonyl)benzonitrile], the half-maximal inhibitory concentration (IC50) was determined as 2.31 ± 0.62 µM. In the case of `CC(C)C[C@H](NC(=O)c1cccc(-c2ccc(Oc3ccc(F)cc3)cc2)n1)C(N)=O` [Compound 44, 6-[4-(4-fluoro-phenoxy)-phenyl]-pyridine-2-carboxylic acid ((S)-1-carbamoyl-3-methyl-butyl)-amide], the IC50 was found to be 0.34 ± 0.07 µM. The same measure for `N#Cc1cccc(S(=O)(=O)N2CCN(C(=O)c3cccc(-c4ccc(Oc5ccc(F)cc5)cc4)n3)CC2)c1` [Compound 10, 3-((4-(6(4-(4-fluorophenoxy)phenyl)picolinoyl)piprazin-1-yl)sulfonyl)benzonitrile]: 0.43 ± 0.11 µM; for `CN1CCOc2cc(S(=O)(=O)N3CCN(C(=O)c4cccc(-c5ccc(Oc6ccc(F)cc6)cc5)n4)CC3)ccc21` [Compound 60, (6-(4-(4-fluorophenoxy)phenyl)pyridin-2-yl)(4-((4-methyl-3,4-dihydro-2H-benzo[b][1,4]oxazin-7-yl)sulfonyl)piperazin-1-yl)methanone]: 0.78 ± 0.1 µM; for `CN(C)S(=O)(=O)N1CCN(C(=O)c2cccc(-c3ccc(Oc4ccc(F)cc4)cc3)n2)CC1` [Compound 11, 4-(6-(4-(4-fluorophenoxy)phenyl)picolinoyl)-N,N-dimethyl-piperazine-1-sulfonamide]: 1.01 ± 0.09 µM.
